Measured values: patent US10941129B2, “Benzyl phenyl ether derivative, preparation method therefor, and pharmaceutical composition and uses thereof” (Institute of Materia Medica, Chinese Academy of Medical …, priority 2016, dated 2021)

Each compound was assayed against interaction between PD-1 and PD-L1 (Homo sapiens (Human), UniProt Q9NZQ7) (assay: Cisbio PD-1/PD-L1 binding assay kit (HTRF)). Details: read-out: IC50, inhibitory activity at molecular level on the interaction between PD-1 and PD-L1.
Source text: 1. In vitro activity evaluation: Cisbio PD-1/PD-L1 binding assay kit was applied for the detection method of in vitro enzymology level.
1) Principle: PD-1 protein is with HIS tag, and PD-1 ligand PD-L1 is with hFc tag. Eu labeled anti-hFc antibody and XL665 labeled anti-HIS antibody are combined with the above two label proteins respectively. After laser excitation, energy can be transferred from donor Eu to receptor XL665, allowing XL665 to glow.
2) Experimental method: The specific method can be referred to Cisbio's PD-1/PD-L1 Kit (item 64CUS000C-2). Reagents should be dispensed in the following order. For 384-well white ELISA plate, 2 μl of diluent or target compound diluted with diluent was added to each well, and then 4 μl of PD-1 protein and 4 μl of PD-L1 protein were added per well, incubated for 15 min at room temperature; and 10 μl of a mixture of anti-Tag1-Eu3^+ and anti-Tag2-XL665 was added per well and incubated for 1 h to 4 h at room temperature and the fluorescence signals at 665 nm and 620 nm were measured with an Envison instrument. HTRF rate=(665 nm/620 nm)*10^4. 8-10 concentrations were detected for each compound and IC50 was calculated by Graphpad software.

Sequence of interaction between PD-1 and PD-L1 (Q9NZQ7 19-238): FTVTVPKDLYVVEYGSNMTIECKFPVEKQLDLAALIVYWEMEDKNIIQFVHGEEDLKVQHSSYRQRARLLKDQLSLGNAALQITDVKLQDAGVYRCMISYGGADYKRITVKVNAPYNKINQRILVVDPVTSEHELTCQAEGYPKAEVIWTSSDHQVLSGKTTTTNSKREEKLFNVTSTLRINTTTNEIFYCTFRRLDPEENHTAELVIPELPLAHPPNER

SMILES | IC50 [nM]
C[C@@H](NCc1cc(Cl)c(OCc2cccc(-c3ccccc3)c2Br)cc1OCc1cccc(C#N)c1)C(=O)O (stereo in doubt) [Example 25, N-(4-(2-bromo-3-phenylbenzyloxy)-5-chloro-2-(3-cyanobenzyloxy)benzyl)alanine] | 3.16
N#Cc1cccc(COc2cc(OCc3cccc(-c4ccccc4)c3Br)ccc2CN[C@@H](CO)C(=O)O)c1 [Example 2, N-(4-(2-bromo-3-phenylbenzyloxy)-2-(3-cyanobenzyloxy)benzyl) serine] | 29.4
C[C@H](O)[C@@H](NCc1cc(Cl)c(OCc2cccc(-c3ccccc3)c2Br)cc1OCc1cccc(C#N)c1)C(=O)O (stereo in doubt) [Example 26, N-(4-(2-bromo-3-phenylbenzyloxy)-5-chloro-2-(3-cyanobenzyloxy)benzyl) threonine] | ≤ 10
CCN(CCO)Cc1ccc(OCc2cccc(-c3ccccc3)c2Br)cc1OCc1cccc(C#N)c1 [Example 3, N-Ethyl-N-hydroxylethyl-4-(2-bromo-3-phenylbenzyloxy)-2-(3-cyanobenzyloxy) benzylamine] | 230
C[C@H](O)[C@@H](NCc1ccc(OCc2cccc(-c3ccccc3)c2Br)cc1OCc1cccc(C#N)c1)C(=O)O (stereo in doubt) [Example 8, N-(4-(2-bromo-3-phenylbenzyloxy)-2-(3-cyanobenzyloxy)benzyl) threonine] | 134
COc1ccc(-c2cccc(COc3ccc(CN[C@@H](CO)C(=O)O)c(OCc4cccc(C#N)c4)c3)c2Br)cc1OC [Example 13, N-(4-(2-bromo-3-(3,4-dimethoxyphenyl)benzyloxy)-2-(3-cyanobenzyloxy)benzyl) serine] | 5350
N#Cc1cccc(COc2cc(OCc3cccc(-c4ccccc4)c3Br)ccc2CNC2CCOCC2)c1 [Example 9, N-(tetrahydro-2H-pyran-4-yl)-4-(2-bromo-3-phenylbenzyloxy)-2-(3-cyanobenzyloxy) benzylamine] | 788
CC(=O)NCCNCc1ccc(OCc2cccc(-c3ccccc3)c2Br)cc1OCc1cccc(C#N)c1 [Example 1, N-acetylaminoethyl-4-(2-bromo-3-phenylbenzyloxy)-2-(3-cyanobenzyloxy) benzylamine] | 439
C[C@H](NCc1ccc(OCc2cccc(-c3ccccc3)c2Br)cc1OCc1cccc(C#N)c1)C(=O)O [Example 6, N-(4-(2-bromo-3-phenylbenzyloxy)-2-(3-cyanobenzyloxy)benzyl) alanine] | 178
CS(=O)(=O)c1cccc(COc2cc(OCc3cccc(-c4ccccc4)c3Br)c(Cl)cc2CN2CCCC[C@H]2C(=O)O)c1 (stereo in doubt) [Example 28, N-(4-(2-bromo-3-phenylbenzyloxy)-5-chloro-2-(3-methanesulfonylbenzyloxy)benzyl) pipecolinic acid] | ≤ 10
N#Cc1cccc(COc2cc(OCc3cccc(-c4ccc5c(c4)OCCO5)c3Br)c(Cl)cc2CN2CCCC[C@H]2C(=O)O)c1 [Example 24, (S)—N-(4-(2-bromo-3-(2,3-dihydrobenzo[b][1,4]dioxin-6-yl)benzyloxy)-5-chloro-2-(3-cyanobenzyloxy)benzyl) pipecolinic acid] | 67.5
N#Cc1cccc(COc2cc(OCc3cccc(-c4ccccc4)c3Br)ccc2CN2CCC[C@H]2C(=O)O)c1 [Example 4, N-(4-(2-bromo-3-phenylbenzyloxy)-2-(3-cyanobenzyloxy)benzyl) proline] | 59.2
N#Cc1cccc(COc2cc(OCc3cccc(-c4ccc5c(c4)OCCO5)c3Br)ccc2CN[C@@H](CO)C(=O)O)c1 [Example 18, N-(4-(2-bromo-3-(2,3-dihydrobenzo[b][1,4]dioxin-6-yl)benzyloxy)-2-(3-cyanobenzyloxy)benzyl) serine] | 38.5
N#Cc1cccc(COc2cc(OCc3cccc(-c4ccccc4)c3Br)c(Cl)cc2CN[C@@H](CO)C(=O)O)c1 [Example 20, N-(4-(2-bromo-3-phenylbenzyloxy)-5-chloro-2-(3-cyanobenzyloxy)benzyl) serine] | 2.48
N#Cc1cccc(COc2cc(OCc3cccc(-c4ccccc4)c3Br)ccc2CNCCO)c1 [Example 5, N-hydroxylethyl-4-(2-bromo-3-phenylbenzyloxy)-2-(3-cyanobenzyloxy) benzylamine] | 307
COc1ccc(-c2cccc(COc3ccc(CN[C@@H](C)C(=O)O)c(OCc4cccc(C#N)c4)c3)c2Br)cc1OC [Example 17, N-(4-(2-bromo-3-(3,4-dimethoxyphenyl)benzyloxy)-2-(3-cyanobenzyloxy)benzyl) alanine] | 3160
C[C@H](O)[C@@H](NCc1ccc(OCc2cccc(-c3ccc4c(c3)OCCO4)c2Br)cc1OCc1cccc(C#N)c1)C(=O)O (stereo in doubt) [Example 19, N-(4-(2-bromo-3-(2,3-dihydrobenzo[b][1,4]dioxin-6-yl)benzyloxy)-2-(3-cyanobenzyloxy)benzyl) threonine] | 18.1
CC(=O)NCCNCc1ccc(OCc2cccc(-c3ccc4c(c3)OCCO4)c2Br)cc1OCc1cccc(C#N)c1 [Example 16, N-acetylaminoethyl-4-(2-bromo-3-(2,3-dihydrobenzo[b][1,4]dioxin-6-yl)benzyloxy)-2-(3-cyanobenzyloxy) benzylamine] | 268
COc1ccc(-c2cccc(COc3ccc(CNCCO)c(OCc4cccc(C#N)c4)c3)c2Br)cc1OC [Example 11, N-hydroxylethyl-4-(2-bromo-3-(3,4-dimethoxyphenyl)benzyloxy)-2-(3-cyanobenzyloxy) benzylamine] | 7870
CS(=O)(=O)c1cccc(COc2cc(OCc3cccc(-c4ccccc4)c3Br)c(Cl)cc2CN[C@H](CO)C(=O)O)c1 (stereo in doubt) [Example 27, N-(4-(2-bromo-3-phenylbenzyloxy)-5-chloro-2-(3-methanesulfonylbenzyloxy)benzyl) serine] | ≤ 10
CSCC[C@H](NCc1ccc(OCc2cccc(-c3ccccc3)c2Br)cc1OCc1cccc(C#N)c1)C(=O)O [Example 7, N-(4-(2-bromo-3-phenylbenzyloxy)-2-(3-cyanobenzyloxy)benzyl) methionine] | 4590
COc1ccc(-c2cccc(COc3ccc(CNCCNC(C)=O)c(OCc4cccc(C#N)c4)c3)c2Br)cc1OC [Example 14, N-acetylaminoethyl-4-(2-bromo-3-(3,4-dimethoxyphenyl)benzyloxy)-2-(3-cyanobenzyloxy) benzylamine] | 6650
